Assay results as given in US11673865B2, “Cyclooctynes for click chemistry” (Massachusetts Institute of Technology, priority 2021, dated 2023).

Columns and labels:
Assay type in all cases: physicochemical
[1] = 1,3-dipolar cycloaddition kinetics by HPLC; conditions: CH2Cl2 (FIG. 1)
Description: To assess the effect of the putative hydrogen bond, the reactivity of compound 3 and DIBO with ethyl diazoacetate, which lacks a hydrogen bond donor, was tested. The rate constant for the reaction of compound 3 with ethyl diazoacetate was nearly 200-fold lower than that with N-benzylazidoacetamide. This decrease is substantially greater than the 4-fold decrease in rate constant for the reaction of these same dipoles with DIBO (FIG. 1).
(§1) Kinetics General Method A. Stock solutions at the specified concentrations in the specified solvents were prepared for each dipole and dipolarophile. Aliquots (0.5 mL) of dipole and dipolarophile were mixed, and reactions were monitored by HPLC with aliquots injected at the timepoints shown in the kinetic traces below. Each reaction was carried out in triplicate. The concentration of remaining dipolarophile was obtained from its corresponding peak in the chromatogram monitored at 280 nm. Second-order rate constants were calculated from the slope of the plot of [dipolarophile]^−1 versus time.
Reaction of ethyl diazoacetate with compound 3 in CH2Cl2. Kinetics General Method A was followed using stock solutions at 400 μM and resulting in final reaction concentrations of 200 μM ethyl diazoacetate and 200 μM compound 3.

[2] = 1,3-dipolar cycloaddition kinetics by HPLC; conditions: CH2Cl2, 26° C., triplicate
Description: as §1
Reaction of compound 9 with compound 3 in CH2Cl2. Kinetics General Method A was followed using stock solutions at 80 μM and resulting in final reaction concentrations of 40 μM 2-Diazo-N-methyl-N-(phenylmethyl)acetamide and 40 μM compound 3.

[3] = Cyclooctyne stability in the presence of glutathione; conditions: 25 μM
Description: The stability of ABC in the presence of biological nucleophiles was determined using a biomimetic concentration of glutathione, which contains amino, carboxyl, and sulfhydryl groups. DIBAC was used as a comparator.
A solution of compound 3 (25 μM) or DIBAC (25 μM) was prepared in phosphate-buffered saline containing reduced glutathione (1.0 mM), oxidized glutathione (0.2 mM), and DMSO (2% v/v). The solutions were incubated at 37° C. (FIG. 6), and HPLC analyses were carried out every hour to determine the remaining concentration of dipolarophile. Subsequently, plots of In(concentration) versus time were prepared to calculate values of kobs for the degradation. These values were divided by the concentration of reduced glutathione to obtain second-order rate constants for the degradation with respect to reduced glutathione.

[4] = 1,3-dipolar cycloaddition kinetics by HPLC
Description: (§2) The rates of reaction for the 1,3-dipolar cycloaddition of dipoles N-benzylazidoacetamide and N-benzyldiazoacetamide with compound 3 in both aprotic (CH2Cl2) and protic solvents (MeOH and PBS containing 2% v/v DMSO) were measured. The depletion of compound 3by using HPLC and second-order rate constants were calculated from the slope of a plot of [compound 3]^−1 versus time. As a benchmark, the rate of the reaction of DIBO with each dipole was also measured.
as §1
Reaction of N-benzyldiazoacetamide with DIBO in CH2Cl2. Kinetics General Method A was followed using stock solutions at 2 mM and resulting in final reaction concentrations of 1 mM N-benzyldiazoacetamide and 1 mM DIBO.
Reaction of N-benzyldiazoacetamide with compound 3 in CH2Cl2. […]

[5] = 1,3-dipolar cycloaddition kinetics by HPLC; conditions: with N-benzylazidoacetamide; CH2Cl2 (FIG. 1)
Description: as §2, §1
Reaction of N-benzylazidoacetamide with DIBO in CH2Cl2. Kinetics General Method A was followed using stock solutions at 2 mM and resulting in final reaction concentrations of 1 mM N-benzylazidoacetamide and 1 mM DIBO.
Reaction of N-benzylazidoacetamide with compound 3 in CH2Cl2. […]

[6] = 1,3-dipolar cycloaddition kinetics by HPLC; conditions: CH2Cl2, 26° C., triplicate; remark: listed apart in the source
Description: as §1
Reaction of 2-Azido-N-methyl-N-(phenylmethyl)acetamide with compound 3 in CH2Cl2. Kinetics General Method A was followed using stock solutions at 80 μM and resulting in final reaction concentrations of 40 μM 2-Azido-N-methyl-N-(phenylmethyl)acetamide and 40 μM compound 3.

In the case of Clc1ccc2c(c1)CCc1cccnc1C#C2 [compound 3, 2-Azabenzo-8-chlorobenzocyclooctyne], the “decrease in rate constant with ethyl diazoacetate relative to N-benzylazidoacetamide” value [1] is reported as about 200 fold, the “second-order rate constant k” value [2] is reported as 0.75 M⁻¹ s⁻¹ and the “second-order rate constant of degradation with respect to reduced glutathione” value [3] is reported as 0.10 M⁻¹ s⁻¹. The “rate increase of N-benzyl diazoacetamide over N-benzyl azidoacetamide” value ([4]; diazoacetamide over azidoacetamide) was about 20 fold, the “rate increase relative to DIBO” value ([4]; with N-benzyl diazoacetamide, CH2Cl2 (FIG. 1)) was 1,200 fold and the “rate increase relative to DIBO” value [5] was 30 fold. For the same compound, the “second-order rate constant k” value [6] was 1.0 M⁻¹ s⁻¹.

With “dibenzoazacyclooctyne [DIBAC, reference compound]” the “second-order rate constant of degradation with respect to reduced glutathione” value ([3]; 1 mM reduced and 0.2 mM oxidized glutathione in PBS containing DMSO (2% v/v), 37° C., HPLC) was 0.05 M⁻¹ s⁻¹.
